In patent publication US20090238760A1, “ANTISPERMATOGENIC, SPERMICIDAL AND/OR ANTIFUNGAL COMPOSITION AND METHODS OF USING THE SAME” (Research Triangle Institute, priority 2006, published 2009):
Where two headings read alike, the source gives them in different places.

Legend:
[1] = test system: testes / spermatogenesis in Swiss (CD-1) mice; details: in words, Cook et al., cited from earlier work
[2] = target: testes receptor (testis membranes); test: Displacement of [125I]074(d) from rat testis membranes (Scatchard / displacement binding assay)
Method: • 1. […] Homogenize the tissue for 20 sec with a Polytron tissue homogenizer (probe no. PTA 10S, 12 mm) at a medium setting (4-6 on a rheostat scale of 10) or until a smooth suspension is obtained. • 4. Pour the homogenate into a chilled 50 ml, centrifuge tube, and centrifuge at 0-4° C. and 500×g ( 1540 rpm in an […]) for 10 min. • 5. Decant the supernatant into clean 10 ml, centrifuge tubes, using multiple tubes as necessary. • 6. Centrifuge the decanted supernatant at 0-4° C. and 17000×g ( 11900 rpm in a Sorvall SS-34 rotor) for 12 min. • 7. Decant and discard the supernatants. […] Perform a total protein assay on resuspended pellet. The […] assay measures the binding of a radiolabeled test compound, over a wide concentration range, to the membrane receptors in both the absence (total binding) and presence (non-specific binding) of non-radioactive compound. Calculation of the resulting assay data yields the Kd of the test compound. • 1. Label 1.2 mL polypropylene tubes in duplicate for each [^125I]074(d) standard total binding and non-specific binding (NSB) determination and place in 96-well matrix test tube racks. Label liquid scintillation vials for free radioactivity determination. • 2. Prepare dilutions of the [^125I]074(d) ranging in concentration from approximately 1 to 200 nM or other desired concentration range. Prepare cold drug at a concentration of at least 100 times the level of the highest level of radiolabeled standard (e.g. 20-40 µM) for NSB determination. • 3. Set up the assay as follows: • 4. […] Add 0.1 mL (200 μg) to each assay tube. Vortex to mix. • 5. Incubate assay at 25° C. for 2 hours while gently shaking at 30-35 rpm (e.g. Precision Scientific Reciprocal Shaker or equivalent). • 6. […] Near the end of the incubation period, place a blank wash plate in the cell harvester (model MPXR-96T, Brandel Scientific, Gaithersburg, Md.). Place cold wash buffer in the reservoir supplying the harvester. Prime the harvester with buffer. Replace the dummy filter plate with the pre-soaked plate. • 8. At the end of the incubation period, remove tubes from incubator. Place the harvester prongs into the tubes, and vacuum to deposit the reaction mixture onto the filter plate. Rinse the reaction tubes 3-4 times with cold buffer and vacuum through the filter plate. • 9. Remove the filter plate from the harvester and allow it to dry thoroughly, using a warm oven if desired. • 10. Seal the bottom of the plate. Insert the plate into the cocktail dispenser and add cocktail (Micro-Scint 20, Perkin Elmer LAS, Shelton, Conn.) to each well • 11. Seal the top of the plate. Allow the plate to sit at least one hour or overnight and then count. • 1. For each level of standard, determine the CP Ms of free (essentially equivalent to total radioactivity added), total bound, and non-specific bound (NSB) compound. • 2. Subtract the NSB CPMs from the corresponding total CP Ms for each standard level to determine specific bound for each standard level. • 3. Convert the free, specific bound and non-specific bound CPMs to a mass basis (e.g. pM) using the specific activity, counter efficiency for the isotope ( 70% for ^125I in a Packard Model 1900TR. Liquid Scintillation Analyzer) and assay dilution factor of the labeled material. • 4. For each standard level, divide the level of compound specifically bound by the corresponding free amount added. • 5. For […] analysis, perform a linear regression analysis where x=specific bound compound and y=ratio of corresponding specific bound/free compound added. • 6. The Kd=-1/slope of the line generated. • 7. For illustrative purposes, a binding isotherm graph can be generated where x=free compound and y=total bound, non-specific bound and specific bound compound. The displacement assay measures the ability of a test drug, over a wide concentration range, to compete with and displace a constant amount of a known radiolabeled drug bound to the testes receptor. Calculation of the resulting assay data yields the Ki of the test drug. • 1. […]

[3] = test system: testes / spermatogenesis in Swiss (CD-1) mice; test: Spermatogenic Index test: testes weight and spermatogenic index after a single oral dose; assay type: in vivo, mouse; details: male CD-1 mice, mean ± SEM; for Spermatogenic Index: 72 h, scale 1 to 6, 5 to 6 normal, vehicle control 5.5 ± 0.16; for Testes Weight: killed 72 h later, vehicle control 204 ± 11.9
Method: The compounds of the invention were tested in mice for their effects on spermatogenesis three days after a single oral dose by the procedure described in Cook et al (J. Med. […] Compounds active in this test have been shown also to be anti-fertility compounds. Compounds were screened for antispermatogenic activity by dosing male mice on day 1 with a gavage dose of control vehicle, positive control (compound 1) or compound of the invention. At 72 h after dosing, animals were killed and the testes were excised, trimmed of fat, and weighed. One testis was examined histologically and rated for spermatogenic potential using the Spermatogenic Index [[…]. Noden, J. Cherry and […]. Reprod. […], 72, 277 (1984)], which is a semiquantitative estimate of the sperm producing ability of the testes. The index is based on histological appearance of the spermatogenic cells in the seminiferous tubules. A scale of 1 to 6 is used with 5 to 6 being the normal status. A second assessment was based on the weight of the testes. […] Compounds were given orally to 8-week old male CD-1 mice in a single dose. Seventy-two hours later the animals were killed and the testes weighed. One testis was subjected to histological analysis and scored according to the Spermatogenic Index (SI) of Fail (see Cook et ah, J. Med. […] RTI-4587-056(l), and a vehicle control group was also analyzed.

spermatogenesis = details: oral administration to animals; cited from earlier work
[4] = test system: testes / spermatogenesis in rats; details: single oral dose of 30 mg/kg to rats, within 24 h; cited from earlier work
[5] = average Ki, 25° C., 2 hours, for 074(d) the Ki is a Kd
[6] = J. Med. Chem., 1997, 40, 2111-2112

Compound: CCN1CCC2C(C1)c1ccc(C)cc1C2c1ccc(C)cc1 (stereo not drawn) [RTI-4587-002(d)]
- in vivo activity (antispermatogenic) ([1]; J. Med. Chem., 1997, 40, 2111-2112, listed as -002(d)): bioactive
- Ki ([2]; as stated in the text, listed as -002(d)): 6.1 µM

Compound: CCN1CCC2C(C1)c1ccc(C)cc1C2c1ccc(C)cc1 (stereo not drawn) [RTI-4587-002(l)]
- in vivo activity (antispermatogenic) ([1]; J. Med. Chem., 1997, 40, 2111-2112, listed as -002(l)): bioinactive
- Ki ([2]; as stated in the text, listed as -002(l)): 66 µM
- Ki [2, 5]: 65.6 µM

Compound: CCN1CCC2C(C1)c1ccc(C)cc1C2c1ccc(C(=O)O)cc1 (stereo not drawn) [RTI-4587-054(d)]
- Ki [2]: ~0.54 µM
- Ki [2, 5]: 0.54 µM

Compound: CCN1CCC2C(C1)c1ccc(C)cc1C2c1ccc(C(=O)O)cc1 (stereo not drawn) [RTI-4587-054(l)]
- in vivo activity (antispermatogenic) [1, 6]: inactive
- Ki [2]: ~330 µM
- Ki [2, 5]: 329 µM

Compound: CCN1CCC2C(C1)c1ccc(C)cc1C2c1ccc(C(=O)OC)cc1 (stereo not drawn) [RTI-4587-056(d)]
- Ki [2, 5]: 207 µM

Compound: CCN1CC[C@H]2[C@H](c3ccc(C(=O)OC)cc3)c3cc(C)ccc3[C@H]2C1 [RTI-4587-056(l)]
- Spermatogenic Index ([3]; single oral dose 30 mg/kg, n=4): 3.69 ± 0.07
- Testes Weight ([3]; single oral dose 30 mg/kg, n=4): 173 ± 8.8 mg
- Ki [2, 5]: 2.7 µM

Compound: CCN1CC[C@@H]2[C@@H](c3ccc(C(=O)OC)cc3)c3cc(C)c(I)cc3[C@@H]2C1 [RTI-4587-073(d)]
- Ki [2, 5]: 67.3 µM

Compound: CCN1CC[C@H]2[C@H](c3ccc(C(=O)OC)cc3)c3cc(C)c(I)cc3[C@H]2C1 [RTI-4587-073(l), (4aS, 5R, 9bS)-5-(4-Carbomethoxyphenyl)-2-ethyl-2,3,4,4a,5,9b-hexahydro-8-iodo-7-methyl-1H-indeno[1,2-c]pyridine]
- Spermatogenic Index ([3]; single oral dose 1 mg/kg, n=5): 2.92 ± 0.15
- Testes Weight ([3]; single oral dose 1 mg/kg, n=5): 144 ± 4.9 mg
- Ki [2, 5]: 0.32 µM

Compound: CCN1CCC2C(C1)c1cc(I)c(C)cc1C2c1ccc(C(=O)O)cc1 (stereo not drawn) [RTI-4587-074(d)]
- in vivo activity (antispermatogenic) [1, 6]: much greater in vivo activity
- Ki [2, 5]: ~0.027 µM
- Ki ([2]; average Ki, 25° C., 2 hours, for 074(d) the Ki is a Kd, listed as 074(d)): 0.027 µM

Compound: C#Cc1cc2c(cc1C)[C@@H](c1ccc(C(=O)OC)cc1)[C@@H]1CCN(CC)C[C@H]21 [RTI-4587-107, (4aS, 5R, 9bS)-5-(4-Carbomethoxyphenyl)-2-ethyl-8-ethynyl-2,3,4,4a,5,9b-hexahydro-7-methyl-1H-indeno[1,2-c]pyridine]
- Spermatogenic Index ([3]; single oral dose 20 mg/kg, n=5): 1.56 ± 0.20
- Testes Weight ([3]; single oral dose 20 mg/kg, n=5): 134.4 ± 7.0 mg

Compound: CCN1CC[C@H]2[C@H](c3ccc(C(=O)OC)cc3)c3cc(C)c(C#Cc4ccccc4)cc3[C@H]2C1 [RTI-4587-109, (4aS, 5R,9bS)-5-(4-Carbomethoxyphenyl)-2-ethyl-2,3,4,4a,5,9b-hexahydro-7-methyl-8-(2-phenylethynyl)-1H-indeno[1,2-c]pyridine]
- Spermatogenic Index ([3]; single oral dose 20 mg/kg, n=5): 4.26 ± 0.12
- Testes Weight ([3]; single oral dose 20 mg/kg, n=5): 168.1 ± 16.4 mg

Compound: CCN1CC[C@@H]2[C@@H](c3ccc(C)cc3)c3cc(C)ccc3[C@@H]2C1.Cl [Sandoz 20-438]
- inhibition of spermatogenesis (spermatogenesis): reversible inhibition of spermatogenesis
- weights of the testes [4]: drastically reducing
